pIC50: −log10 of the molar value.

The target in this assay is PI3K delta (Homo sapiens, UniProt O00329). Briefly: Luciferase-coupled chemiluminescence kinase assay (ATP consumption, KinaseGlo). Type of assay: biochemical. An outline of the steps: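 Compound, kinase and ATP (≤ KM) reacted 2 h at ambient temperature, then remaining ATP quantified with luciferase-luciferin (KinaseGlo) luminescence as percent consumed.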
Sequence of PI3K delta (O00329 whole entry): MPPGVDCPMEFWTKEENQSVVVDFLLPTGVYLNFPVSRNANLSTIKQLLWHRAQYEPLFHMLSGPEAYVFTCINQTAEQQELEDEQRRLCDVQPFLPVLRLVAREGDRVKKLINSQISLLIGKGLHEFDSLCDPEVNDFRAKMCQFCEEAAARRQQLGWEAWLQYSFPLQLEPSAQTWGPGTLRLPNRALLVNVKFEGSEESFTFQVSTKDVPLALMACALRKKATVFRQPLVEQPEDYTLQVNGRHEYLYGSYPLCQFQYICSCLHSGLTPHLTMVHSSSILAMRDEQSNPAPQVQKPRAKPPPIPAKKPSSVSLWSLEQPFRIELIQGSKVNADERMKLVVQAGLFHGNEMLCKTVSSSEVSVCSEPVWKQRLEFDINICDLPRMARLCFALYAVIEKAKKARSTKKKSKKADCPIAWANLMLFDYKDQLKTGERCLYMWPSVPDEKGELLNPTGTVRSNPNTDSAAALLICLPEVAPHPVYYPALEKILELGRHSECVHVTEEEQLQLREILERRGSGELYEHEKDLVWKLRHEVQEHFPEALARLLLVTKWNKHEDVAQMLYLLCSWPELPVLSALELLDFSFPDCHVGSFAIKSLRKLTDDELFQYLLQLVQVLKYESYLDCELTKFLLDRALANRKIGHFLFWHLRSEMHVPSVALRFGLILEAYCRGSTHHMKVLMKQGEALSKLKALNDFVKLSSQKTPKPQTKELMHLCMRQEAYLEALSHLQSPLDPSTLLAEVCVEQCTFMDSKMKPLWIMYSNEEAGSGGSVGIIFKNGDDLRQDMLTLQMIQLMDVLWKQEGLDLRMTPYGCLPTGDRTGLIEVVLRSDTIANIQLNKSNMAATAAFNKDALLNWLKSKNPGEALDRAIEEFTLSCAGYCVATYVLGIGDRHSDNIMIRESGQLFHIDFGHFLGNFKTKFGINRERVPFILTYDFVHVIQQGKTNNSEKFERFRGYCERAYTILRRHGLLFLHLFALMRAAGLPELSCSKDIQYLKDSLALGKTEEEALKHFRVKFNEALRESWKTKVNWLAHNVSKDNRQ
Sequence of PI3K delta (P27986 whole entry partner): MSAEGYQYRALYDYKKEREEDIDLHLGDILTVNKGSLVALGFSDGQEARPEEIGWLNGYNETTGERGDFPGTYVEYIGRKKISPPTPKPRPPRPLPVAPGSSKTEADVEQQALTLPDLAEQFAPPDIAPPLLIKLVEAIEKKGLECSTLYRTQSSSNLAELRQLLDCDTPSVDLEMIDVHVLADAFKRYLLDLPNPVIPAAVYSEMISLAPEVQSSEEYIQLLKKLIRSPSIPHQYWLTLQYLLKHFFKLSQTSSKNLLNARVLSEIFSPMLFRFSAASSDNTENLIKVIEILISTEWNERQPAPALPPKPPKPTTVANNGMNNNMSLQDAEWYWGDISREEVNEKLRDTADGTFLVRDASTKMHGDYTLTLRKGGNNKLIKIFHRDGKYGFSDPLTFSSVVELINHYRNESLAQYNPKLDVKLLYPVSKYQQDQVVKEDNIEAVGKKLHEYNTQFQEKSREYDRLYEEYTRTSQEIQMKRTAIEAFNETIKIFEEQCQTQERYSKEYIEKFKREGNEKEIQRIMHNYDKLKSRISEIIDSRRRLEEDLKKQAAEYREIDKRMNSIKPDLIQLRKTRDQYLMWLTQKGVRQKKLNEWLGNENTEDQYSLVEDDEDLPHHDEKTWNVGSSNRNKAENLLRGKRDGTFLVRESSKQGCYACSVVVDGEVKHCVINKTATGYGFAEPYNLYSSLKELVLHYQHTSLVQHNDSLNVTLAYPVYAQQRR
A general note: Kinase-Glo reads ATP consumption through a luciferase reaction.
Broadly, the pIC50 is the IC50 on a negative log10 scale, so that one unit is a factor of ten. A low value points to a high IC50. Regarding `Cn1c(-c2cncc(Br)c2)nc2c(N3CCC(n4c(=O)[nH]c5ccccc54)CC3)ncnc21` [Compound 285, 1-{1-[8-(5-bromopyridin-3-yl)-9-methyl-9H-purin-6-yl]piperidin-4-yl}-1,3-dihydro-2H-benzimidazol-2-one], the pIC50 was over 7.30.

Molecule `Cn1c(-c2cn[nH]c2-c2ccccc2)nc2c(N3CCC(n4c(=O)[nH]c5ccccc54)CC3)ncnc21` [Compound 286, 1-{1-[9-methyl-8-(5-phenyl-1H-pyrazol-4-yl)-9H-purin-6-yl]piperidin-4-yl}-1,3-dihydro-2H-benzimidazol-2-one] gave a pIC50 of over 7.30. In turn, `Cn1c(-c2cn[nH]c2C2CC2)nc2c(N3CCC(n4c(=O)[nH]c5ccccc54)CC3)ncnc21` [Compound 287, 1-{1-[8-(5-cyclopropyl-1H-pyrazol-4-yl)-9-methyl-9H-purin-6-yl]piperidin-4-yl}-1,3-dihydro-2H-benzimidazol-2-one] had a pIC50 of over 7.30.

Molecule `Cn1cncc1-c1nc2c(N3CCC(n4c(=O)[nH]c5ccccc54)CC3)ncnc2n1C` [Compound 288, 1-{1-[9-methyl-8-(1-methyl-1H-imidazol-5-yl)-9H-purin-6-yl]piperidin-4-yl}-1,3-dihydro-2H-benzimidazol-2-one] had a pIC50 of over 7.30. Take `Cn1c(C(=O)NCC2CC2)nc2c(N3CC=C(n4c(=O)[nH]c5ccccc54)CC3)ncnc21` [Compound 289, N-(cyclopropylmethyl)-9-methyl-6-[4-(2-oxo-2,3-dihydro-1H-benzimidazol-1-yl)-3,6-dihydropyridin-1(2H)-yl]-9H-purine-8-carboxamide]: the pIC50 was 6.60 to 7.30. `Cn1c(-c2cccnc2)nc2c(N3CCC4(CC3)C(=O)Nc3ccccc34)ncnc21` [Compound 290, 1′-(9-methyl-8-pyridin-3-yl-9H-purin-6-yl)spiro[indole-3,4′-piperidin]-2(1H)-one] gave a pIC50 of over 7.30. `CCn1c(-c2cccnc2)nc2c(N3CCC4(CC3)C(=O)Nc3ccccc34)ncnc21` [Compound 291, 1′-(9-ethyl-8-pyridin-3-yl-9H-purin-6-yl)spiro[indole-3,4′-piperidin]-2(1H)-one] had a pIC50 of over 7.30.

As for `CCn1c(-c2cncnc2)nc2c(N3CCC4(CC3)C(=O)Nc3ccccc34)ncnc21` [Compound 292, 1′-(9-ethyl-8-pyrimidin-5-yl-9H-purin-6-yl)spiro[indole-3,4′-piperidin]-2(1H)-one], the pIC50 was over 7.30.

`Cn1c(-c2cncnc2)nc2c(N3CCC4(CC3)C(=O)Nc3ccccc34)ncnc21` [Compound 293, 1′-(9-Methyl-8-pyrimidin-5-yl-9H-purin-6-yl)spiro[indole-3,4′-piperidin]-2(1H)-one]: the pIC50 is over 7.30. Take `CCn1c(-c2cncnc2)nc2c(N3CCC(n4c(=O)[nH]c5ccccc54)CC3)ncnc21` [Compound 294, 1-[1-(9-ethyl-8-pyrimidin-5-yl-9H-purin-6-yl)piperidin-4-yl]-1,3-dihydro-2H-benzimidazol-2-one]: the pIC50 was over 7.30. Consider `Cn1cc(-c2nc3c(N4CCC(n5c(=O)[nH]c6c(F)cccc65)CC4)ncnc3n2C)cn1` [Compound 295, 4-fluoro-1-{1-[9-methyl-8-(1-methyl-1H-pyrazol-4-yl)-9H-purin-6-yl]piperidin-4-yl}-1,3-dihydro-2H-benzimidazol-2-one], for which the pIC50 is over 7.30.

On to `CCn1c(-c2cccnc2)nc2c(N3CCC(n4c(=O)[nH]c5ccccc54)CC3)ncnc21` [Compound 296, 1-[1-(9-ethyl-8-pyridin-3-yl-9H-purin-6-yl)piperidin-4-yl]-1,3-dihydro-2H-benzimidazol-2-one], for which the pIC50 is over 7.30. In the case of `Cn1c(-c2cccnn2)nc2c(N3CCC(n4c(=O)[nH]c5ccccc54)CC3)ncnc21` [Compound 297, 1-[1-(9-methyl-8-pyridazin-3-yl-9H-purin-6-yl)piperidin-4-yl]-1,3-dihydro-2H-benzimidazol-2-one], the pIC50 was 6.60 to 7.30.

The record behind these values is patent US20140058103A1, “Inhibitors of PI3K-Delta and Methods of Their Use and Manufacture” (Exelixis, Inc., priority 2010, published 2014).
